Results taken from ChEMBL document CHEMBL1201862, “PubChem BioAssay data set” (2004).
Calls of active or inactive are those of the source.

Key:
Assay type in all cases: functional
Caspase-3 = biological target: T1, Caspase-3 (Homo sapiens, UniProt P42574); experiment: SAR Analysis of small molecule inhibitors of Sentrin-specific proteases (SENPs) using a Caspase-3 Selectivity assay. [Related pubchem assays (depositor defined):AID2540, AID2599, AID434973, AID489001]
T1 sequence (P42574 whole entry): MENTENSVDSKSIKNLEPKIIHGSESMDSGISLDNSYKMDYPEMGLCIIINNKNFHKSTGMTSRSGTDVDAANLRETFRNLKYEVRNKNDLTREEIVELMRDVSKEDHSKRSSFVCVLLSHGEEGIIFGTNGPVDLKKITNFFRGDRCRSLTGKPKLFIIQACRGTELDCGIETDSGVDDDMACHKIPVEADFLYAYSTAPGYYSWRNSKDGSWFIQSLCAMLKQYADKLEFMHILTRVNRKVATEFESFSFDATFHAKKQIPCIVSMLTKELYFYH

[1] = biological target: T2, Sentrin-specific protease 7 (Homo sapiens, UniProt Q9BQF6); experiment: inhibition of human SENP7 cleavage activity – biochemical, luminescence, SAR follow-up (AID 504497)
T2 sequence (Q9BQF6 whole entry): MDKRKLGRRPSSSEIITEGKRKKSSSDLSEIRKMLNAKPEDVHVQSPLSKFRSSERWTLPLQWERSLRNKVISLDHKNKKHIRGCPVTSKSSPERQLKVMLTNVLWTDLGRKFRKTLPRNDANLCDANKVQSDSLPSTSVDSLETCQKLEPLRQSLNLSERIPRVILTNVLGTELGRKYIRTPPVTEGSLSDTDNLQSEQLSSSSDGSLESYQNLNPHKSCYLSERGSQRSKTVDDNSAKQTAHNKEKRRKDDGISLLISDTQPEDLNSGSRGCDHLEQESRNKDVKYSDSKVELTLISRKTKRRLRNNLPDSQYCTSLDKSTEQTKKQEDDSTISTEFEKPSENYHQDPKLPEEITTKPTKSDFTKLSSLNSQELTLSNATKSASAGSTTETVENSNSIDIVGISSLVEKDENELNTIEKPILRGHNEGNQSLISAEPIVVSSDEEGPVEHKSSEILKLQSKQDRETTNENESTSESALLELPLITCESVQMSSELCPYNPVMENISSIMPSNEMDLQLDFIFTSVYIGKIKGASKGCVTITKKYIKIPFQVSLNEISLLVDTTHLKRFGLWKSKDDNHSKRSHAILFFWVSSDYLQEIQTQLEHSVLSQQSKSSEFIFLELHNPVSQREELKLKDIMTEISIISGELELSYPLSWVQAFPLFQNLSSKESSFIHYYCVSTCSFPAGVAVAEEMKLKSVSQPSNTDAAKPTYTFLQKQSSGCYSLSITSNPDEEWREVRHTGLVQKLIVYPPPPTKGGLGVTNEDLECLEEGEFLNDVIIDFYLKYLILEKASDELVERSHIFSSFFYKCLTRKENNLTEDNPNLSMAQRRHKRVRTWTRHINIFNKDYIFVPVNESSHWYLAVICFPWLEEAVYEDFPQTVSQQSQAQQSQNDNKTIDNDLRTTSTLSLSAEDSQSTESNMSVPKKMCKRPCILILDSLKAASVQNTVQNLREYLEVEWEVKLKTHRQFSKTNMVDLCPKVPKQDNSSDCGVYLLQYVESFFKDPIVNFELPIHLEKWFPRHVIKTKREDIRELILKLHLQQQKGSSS

[2] = biological target: T3, Sentrin-specific protease 8 (Homo sapiens, UniProt Q96LD8); experiment: inhibition of human SENP8 cleavage activity – biochemical, luminescence, SAR follow-up (AID 504501)
T3 sequence (Q96LD8 whole entry): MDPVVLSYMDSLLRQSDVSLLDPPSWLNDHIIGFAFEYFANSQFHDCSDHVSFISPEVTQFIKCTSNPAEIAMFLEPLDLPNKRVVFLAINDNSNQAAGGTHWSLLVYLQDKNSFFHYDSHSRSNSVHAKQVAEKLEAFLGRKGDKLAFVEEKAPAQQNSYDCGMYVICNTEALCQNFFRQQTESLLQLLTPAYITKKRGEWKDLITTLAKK

[3] = biological target: T4, Sentrin-specific protease 6 (Homo sapiens, UniProt Q9GZR1); experiment: SAR Analysis of small molecule inhibitors of Sentrin-specific protease 6 (SENP6) using a Luminescent assay. [Related pubchem assays (depositor defined):AID2582, AID2599]
T4 sequence (Q9GZR1 whole entry): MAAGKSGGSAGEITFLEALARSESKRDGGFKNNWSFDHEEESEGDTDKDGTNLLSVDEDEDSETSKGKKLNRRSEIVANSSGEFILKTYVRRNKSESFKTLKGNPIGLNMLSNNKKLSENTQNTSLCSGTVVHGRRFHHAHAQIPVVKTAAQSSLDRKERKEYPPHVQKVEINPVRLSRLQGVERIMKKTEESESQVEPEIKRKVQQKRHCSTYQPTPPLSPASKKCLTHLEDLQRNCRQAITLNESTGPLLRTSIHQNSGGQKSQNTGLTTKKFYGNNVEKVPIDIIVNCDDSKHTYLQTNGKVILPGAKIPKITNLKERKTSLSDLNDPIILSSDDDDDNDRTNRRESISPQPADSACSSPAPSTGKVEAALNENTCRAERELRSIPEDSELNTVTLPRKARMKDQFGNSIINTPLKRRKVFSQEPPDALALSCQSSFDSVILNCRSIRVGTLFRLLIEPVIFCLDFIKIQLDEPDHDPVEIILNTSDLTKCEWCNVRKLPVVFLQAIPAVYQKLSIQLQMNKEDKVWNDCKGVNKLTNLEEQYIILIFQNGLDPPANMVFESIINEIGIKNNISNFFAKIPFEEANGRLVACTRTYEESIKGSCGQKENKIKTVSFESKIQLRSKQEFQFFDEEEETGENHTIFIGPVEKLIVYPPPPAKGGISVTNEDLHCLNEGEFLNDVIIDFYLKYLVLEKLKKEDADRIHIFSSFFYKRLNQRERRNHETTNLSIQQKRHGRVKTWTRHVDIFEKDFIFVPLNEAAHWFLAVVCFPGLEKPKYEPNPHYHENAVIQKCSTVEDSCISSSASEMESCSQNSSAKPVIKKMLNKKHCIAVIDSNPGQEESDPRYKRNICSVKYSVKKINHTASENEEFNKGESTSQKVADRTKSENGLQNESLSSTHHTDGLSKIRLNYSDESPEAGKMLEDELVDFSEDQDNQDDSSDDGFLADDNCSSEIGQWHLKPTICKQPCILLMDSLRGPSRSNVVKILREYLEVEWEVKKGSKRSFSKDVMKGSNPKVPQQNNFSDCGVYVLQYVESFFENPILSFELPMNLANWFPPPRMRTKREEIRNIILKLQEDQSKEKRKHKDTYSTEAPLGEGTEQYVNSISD

Aurora kinase B = Aurora kinase B (Homo sapiens, UniProt Q96GD4)
Sequence of Aurora kinase B (Q96GD4 whole entry): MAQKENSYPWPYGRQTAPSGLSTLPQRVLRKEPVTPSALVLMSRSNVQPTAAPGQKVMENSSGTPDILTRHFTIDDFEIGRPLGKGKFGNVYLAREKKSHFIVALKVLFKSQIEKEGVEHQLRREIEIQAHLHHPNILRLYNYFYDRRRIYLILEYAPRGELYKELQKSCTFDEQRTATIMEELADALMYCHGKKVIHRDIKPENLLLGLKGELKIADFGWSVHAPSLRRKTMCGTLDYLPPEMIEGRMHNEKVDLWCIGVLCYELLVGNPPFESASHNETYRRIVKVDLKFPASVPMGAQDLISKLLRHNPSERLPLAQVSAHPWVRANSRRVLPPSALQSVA

[4] = biological target: Vascular endothelial growth factor receptor 2 (Homo sapiens, UniProt P35968)
Sequence of Vascular endothelial growth factor receptor 2 (P35968 whole entry): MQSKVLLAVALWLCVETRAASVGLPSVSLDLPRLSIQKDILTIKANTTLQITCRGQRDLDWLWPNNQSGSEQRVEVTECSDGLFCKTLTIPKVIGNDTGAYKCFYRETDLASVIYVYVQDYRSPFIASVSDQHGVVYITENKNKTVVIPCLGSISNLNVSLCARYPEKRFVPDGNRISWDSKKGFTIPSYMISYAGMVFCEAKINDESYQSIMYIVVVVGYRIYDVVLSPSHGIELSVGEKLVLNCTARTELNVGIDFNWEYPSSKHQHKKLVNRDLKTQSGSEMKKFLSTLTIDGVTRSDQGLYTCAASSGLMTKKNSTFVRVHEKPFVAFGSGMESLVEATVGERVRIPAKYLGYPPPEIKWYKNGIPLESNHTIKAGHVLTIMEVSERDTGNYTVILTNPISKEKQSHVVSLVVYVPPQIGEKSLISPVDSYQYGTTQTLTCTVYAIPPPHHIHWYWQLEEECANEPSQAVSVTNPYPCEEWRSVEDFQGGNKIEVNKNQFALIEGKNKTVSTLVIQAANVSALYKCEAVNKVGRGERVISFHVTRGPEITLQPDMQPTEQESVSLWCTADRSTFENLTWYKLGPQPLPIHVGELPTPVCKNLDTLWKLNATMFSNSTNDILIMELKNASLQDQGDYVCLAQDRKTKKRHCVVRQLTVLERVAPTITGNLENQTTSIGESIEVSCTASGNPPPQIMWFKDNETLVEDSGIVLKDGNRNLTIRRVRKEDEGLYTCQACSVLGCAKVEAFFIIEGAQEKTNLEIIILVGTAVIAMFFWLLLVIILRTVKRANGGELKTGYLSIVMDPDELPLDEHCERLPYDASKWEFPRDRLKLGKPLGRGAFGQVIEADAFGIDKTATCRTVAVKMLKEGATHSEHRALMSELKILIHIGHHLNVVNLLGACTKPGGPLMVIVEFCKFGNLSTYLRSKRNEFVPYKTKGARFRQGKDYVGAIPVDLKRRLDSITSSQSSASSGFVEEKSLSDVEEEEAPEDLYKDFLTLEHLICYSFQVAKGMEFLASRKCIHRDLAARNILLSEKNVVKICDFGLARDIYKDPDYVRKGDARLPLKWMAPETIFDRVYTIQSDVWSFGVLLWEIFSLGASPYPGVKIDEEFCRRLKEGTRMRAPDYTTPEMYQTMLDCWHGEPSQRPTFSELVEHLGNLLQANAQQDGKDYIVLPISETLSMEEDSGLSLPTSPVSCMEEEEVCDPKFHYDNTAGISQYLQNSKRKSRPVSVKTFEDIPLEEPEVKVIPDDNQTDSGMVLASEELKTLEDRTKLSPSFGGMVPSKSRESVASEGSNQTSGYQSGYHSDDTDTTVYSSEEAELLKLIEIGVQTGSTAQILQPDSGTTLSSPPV

Aurora kinase A = Aurora kinase A (Homo sapiens, UniProt O14965);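 note: value from the Navigating the Kinome kinase panel profiling, panel entry STK6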
Sequence of Aurora kinase A (O14965 whole entry): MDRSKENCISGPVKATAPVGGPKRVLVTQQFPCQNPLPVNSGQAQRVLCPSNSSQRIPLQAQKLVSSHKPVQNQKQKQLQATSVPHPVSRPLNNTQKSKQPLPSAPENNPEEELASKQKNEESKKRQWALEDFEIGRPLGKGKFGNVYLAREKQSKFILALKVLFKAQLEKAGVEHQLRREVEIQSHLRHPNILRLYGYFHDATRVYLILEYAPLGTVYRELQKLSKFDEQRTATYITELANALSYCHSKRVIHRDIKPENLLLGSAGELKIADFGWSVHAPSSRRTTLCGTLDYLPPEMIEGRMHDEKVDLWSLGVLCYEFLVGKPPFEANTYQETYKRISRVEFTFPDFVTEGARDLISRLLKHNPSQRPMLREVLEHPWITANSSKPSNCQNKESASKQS

IC50 (Caspase-3) | IC50 [1] | IC50 [3] | Ki (Aurora kinase B) | Ki [4] | Ki (Aurora kinase A) | Compound | IC50 [2]
> 99 µM (inactive) | > 99 µM (inactive) | > 99 µM (inactive) | – | – | – | N#Cc1ccc(-c2nc(/C=C/c3ccccc3)no2)cc1 | > 99 µM (inactive)
– | – | – | 0.02 µM (active) | > 5.01 µM (inactive) | 1 µM (active) | NC(=NO)c1cccc(S(=O)(=O)Nc2ccc3c(c2)C(=NO)c2ccccc2-3)c1 | –
– | – | – | 0.00251 µM (active) | 0.00316 µM (active) | 0.501 µM (active) | O=C(Nc1ccc(-n2cnc3ccccc32)cc1)Nc1cccc(C(F)(F)F)c1 | –
